Assay results from article PMC3913620, “Preclinical Evaluation of the Novel, Orally Bioavailable Selective Inhibitor of Nuclear Export (SINE) KPT-335 in Spontaneous Canine Cancer: Results of a Phase I Study” (PLoS ONE, 2014).
Values joined by “and” are separate entries in the source; they are usually repeats but may differ in a detail not shown here. Identical values can stand only once.

Key:
OCI-Ly3 DLBCL cells = assay: MTS cell viability assay, OCI-Ly3; assay type: cell-based, human; settings: Homo sapiens, OCI-Ly3, 72 hours, read-out: IC50 (± S.D.), OCI-Ly3
Experimental: (§1) Cryopreserved tumor cells obtained from sterile lymph node biopsy samples from dogs with diffuse large B cell lymphoma (DLBCL) were cultured with 100 ng/mL of megaCD40L (Enzo Life Science, Plymouth Meeting, PA) as previously described, [27]. The human T-cell leukemia cell line, Jurkat, was from the American Type Culture Collection (ATCC, Manassas, VA) and cultured in RPMI1640 medium (Gibco/BRL, Grand Island, NY) containing 10% fetal bovine serum (FBS; Atlas Biologicals, Fort Collins, CO), 2-mercaptoethanol (Gibco/BRL), HEPES, L-glutamine, sodium pyruvate (Mediatech Inc., Manassas, VA), non-essential amino acids (Sigma Aldrich, St. Louis, MO), and Primocin (Invivogen, San Diego, CA). […]
(§2) Cell viability for lymphoid lines was determined by the MTS (3-(4, 5-dimethylthiazol-2-yl)-5-(3-carboxymethoxyphenyl)-2-(4-sulfophenyl)-2H-tetrazolium) assay using CellTiter 96® AQueous One Solution Cell Proliferation Assay Kit (Promega, Madison, WI). […] After 72 hours, 20 µL of MTS solution was added to each well and cells were incubated for another 4 hours before measuring absorbance at 490 nm using a Wallac Victor 1420 Multilabel Counter (Perkin Elmer, Waltham, MA). The IC50 of SINE was calculated using Prism 6 software (GraphPad Software, Inc., La Jolla, CA).

OCI-Ly10 DLBCL cells = assay: MTS cell viability assay, OCI-Ly10; assay type: cell-based, human; settings: Homo sapiens, OCI-Ly10, 72 hours, read-out: IC50 (± S.D.), OCI-Ly10
Experimental: as §1, §2

[1] = system: primary canine DLBCL cells; assay: MTS cell viability assay, primary canine DLBCL samples; assay type: cell-based; settings: Canis lupus familiaris, primary sample #1, 72 hours, read-out: IC50, DLBCL#1
Experimental: Cryopreserved tumor cells obtained from sterile lymph node biopsy samples from dogs with diffuse large B cell lymphoma (DLBCL) were cultured with 100 ng/mL of megaCD40L (Enzo Life Science, Plymouth Meeting, PA) as previously described, [27]. The human T-cell leukemia cell line, Jurkat, was from the American Type Culture Collection (ATCC, Manassas, VA) and cultured in RPMI1640 medium (Gibco/BRL, Grand Island, NY) containing 10% fetal bovine serum (FBS; Atlas Biologicals, Fort Collins, CO), 2-mercaptoethanol (Gibco/BRL), HEPES, L-glutamine, sodium pyruvate (Mediatech Inc., Manassas, VA), non-essential amino acids (Sigma Aldrich, St. Louis, MO), and Primocin (Invivogen, San Diego, CA). The canine DLBCL cell line CLBL1 obtained from Dr. Barbara Rütgen (University of Vienna, Austria), [29] and human DLBCL cell lines OCI-Ly3 [30], [31] and OCI-Ly10 [32] obtained from Dr. Anne Novak (Mayo Clinic Cancer Center, Rochester, MN) were cultured in complete Iscove’s Modified Dulbecco’s medium (IMDM) containing 20% FBS, L-glutamine, and Primocin. All cells were maintained at 37°C in a humidified 5% CO2 atmosphere. The following additional canine tumor cell lines were used to evaluate response to SINE compounds: C2, mast cell tumor line provided by Dr. George Caughey, UCSF, San Francisco, CA [33]; OSA16, osteosarcoma cell line, provided by Dr. Jaime Modiano, UM, Minneapolis, MN [34]; and 323610-3, malignant melanoma cell line, provided by Dr. Michael Kent, UCD, Davis, CA [35]. All cell lines were cultured in complete RPMI media containing 10% FBS, antibiotic/antimycotic, HEPES, sodium pyruvate, nonessential amino acids and Glutamax (media supplements from Gibco).
Cell viability for lymphoid lines was determined by the MTS (3-(4, 5-dimethylthiazol-2-yl)-5-(3-carboxymethoxyphenyl)-2-(4-sulfophenyl)-2H-tetrazolium) assay using CellTiter 96® AQueous One Solution Cell Proliferation Assay Kit (Promega, Madison, WI). Briefly, for lymphoid cell lines, 5×10^4 cells (or 1×10^5 primary DLBCL cells) were cultured in 100 µL of complete medium in 96-well plates in the presence of SINE compounds. After 72 hours, 20 µL of MTS solution was added to each well and cells were incubated for another 4 hours before measuring absorbance at 490 nm using a Wallac Victor 1420 Multilabel Counter (Perkin Elmer, Waltham, MA). The IC50 of SINE was calculated using Prism 6 software (GraphPad Software, Inc., La Jolla, CA).

[2] = Phase I dose escalation study, toxicity assessment; settings: dog, in vivo, po; orally twice/week (Monday/Thursday), dogs with spontaneous cancer; read-out: maximum tolerated dose (MTD)
Experimental: This study was a Phase I dose escalating, open label assessment of the safety and biologic activity of KPT-335 in client owned dogs with spontaneous malignancies. Assessment of clinical toxicities and tumor response was performed at each visit. Dogs were evaluated for hematologic and biochemical toxicities every 7 days with routine bloodwork. The initial dose of 1 mg/kg orally twice per week (Monday/Thursday or Tuesday/Friday) was based on previous data from normal laboratory dogs (data not shown) and dose escalation was set at 0.25 mg/kg increments in cohorts of 3 until dose limiting toxicity (DLT) was identified. The DLT was considered to be any grade 3 or 4 hematologic or non-hematologic toxicity based on the established VCOG-CTCAE criteria. […] Disease progression or signs and symptoms definitely related to disease were not considered adverse events (AEs). The maximum tolerated dose (MTD) was considered to be one dose below that at which DLT occurred.
Each patient underwent a baseline complete history, physical examination, and pre-dose laboratory assessment that included a complete blood count (CBC), serum biochemistry profile, coagulation parameters (PT/PTT) and urinalysis. Patients were assessed for adverse events on days 7, 14, 21, and 28, and every 2 weeks thereafter at which time all laboratory assessments were repeated. […]

dogs with NHL = assay: Dose expansion study, tumor response; assay type: in vivo; settings: 1.5 mg/kg Monday/Wednesday/Friday
Experimental: Tumor assessments were completed prior to study entry, and days 7, 14, 21, and 28. For dogs that continued beyond 4 weeks, response assessments were performed every 2 weeks thereafter, or at the time of suspected tumor progression. Responses were assessed by the investigator according to pre-defined protocol criteria. The response in dogs with assessable disease was performed by clinical examination, ultrasonography, or thoracic radiography. Many lesions were not amenable for quantitative radiographic imaging, but were followed either by serial clinical examination (superficial lesions; palpable lymph nodes) or by ultrasonography (abdominal lymph nodes). Thoracic lesions were assessed by thoracic radiography.
The response in dogs with measurable disease was judged by the investigator on the basis of Response Evaluation Criteria for Peripheral Nodal Lymphoma in dogs (v1.0). A complete response (CR) was defined as disappearance of all disease on two measurements separated by a minimum period of 3 weeks. A partial response (PR) was defined as greater than 30% reduction in the sum of the longest diameter of the target lesions documented by two assessments separated by at least 3 weeks. An increase of >20% in the size of all measurable tumor areas as measured by the sum of longest diameters of the target lesions taken as reference the smallest sum since initiation of therapy, or the appearance of any new lesion(s) would qualify as progressive disease (PD). […] Dogs who had no evidence of tumor progression and who had not experienced any unacceptable toxicity were eligible for extended treatment cycles. Dose escalation from twice per week administration to three times per week administration in an individual dog was permitted if the dog was tolerating therapy.

[3] = system: canine melanoma cell lines; assay: Proliferation and viability of canine melanoma cell lines (data not shown); assay type: cell-based; settings: Canis lupus familiaris, read-out: IC50 concentrations, canine melanoma cell lines
Oral bioavailability = assay type: in vivo; settings: normal laboratory dogs
[4] = dog, in vivo
[5] = Tolerability in normal laboratory dogs (data not shown); settings: dog, in vivo

In the case of `O=C(/C=C\n1cnc(-c2cc(C(F)(F)F)cc(C(F)(F)F)c2)n1)NNc1ccccn1` [KPT-335], the IC50 (OCI-Ly3 DLBCL cells) is reported as 2.1 ± 1.3 nM, the IC50 (OCI-Ly10 DLBCL cells) is reported as 41.8 ± 21 nM and the IC50 [1] is reported as 2 nM. The MTD [2] was 1.75 mg/kg, the CB rate (dogs with NHL) was 67% and the “TTP range, responders” value (dogs with NHL) was 35 to 354 days. For the same compound, the “clinical benefit (CB), dogs” value (dogs with NHL) was 4/6, the “dogs with SD for longer than 28 days” value (dogs with NHL) was 4 and the “median TTP, responders” value (dogs with NHL) was 83 days. For the same compound, the “duration of PR, individual dogs” value (dogs with NHL; 1.5 mg/kg) was 35 days and 354 days, the “TTP range, all dogs” value (dogs with NHL; 6 dogs with NHL) was 13 to 354 days and the “median TTP, all dogs” value (dogs with NHL; 6 dogs with NHL) was 55 days. For the same compound, the IC50 [3] was 95 to 290 nM, the oral bioavailability (Oral bioavailability) was “excellent oral bioavailability” and the tolerable doses [4] was “below 3 mg/kg”. It also gave an MTD [5] of 2 mg/kg.
